Each molecule was assayed on human bronchial epithelial cells, CFTR corrector, plate reader (assay: rescue of ΔF508 CFTR function, airway epithelium – human bronchial epithelial cells, plate reader, cherry-pick, two tests, dose response (AID 743267)). Details: measured here: test 2 replicate run.

First: COCCOC(=O)c1[nH]c2c(c1C)C(=O)CC(c1cccs1)C2 (stereo not drawn)
Second: Cc1ccc2[nH]c(C(=O)N/N=C/c3ccccc3O)c(C)c2c1
The AC50 of the first is 3.2-fold higher: 4.16 µM for the first, 1.31 µM for the second.

`CCOC(=O)c1oc2ccc(S(=O)(=O)n3nc(-c4ccccc4)cc3N)cc2c1C` and `CC[n+]1c(-c2ccccc2)c2cc(N)ccc2c2ccc(N)cc21` are within 1.5-fold of each other in AC50: 6.82 µM for the first, 7.74 µM for the second.

Going from `O=C(Nc1ccc(Br)cn1)c1cccc2ccccc12` to `Cc1cc(Nc2ccc(Br)cc2)nc2ccccc12`, the AC50 rises from 1.97 µM to 21.1 µM (11-fold).

Compared with `Cc1occc1C(=O)N/N=C/c1c(O)ccc2ccccc12`, `COc1ccccc1C(=O)Nc1ccc2c(c1)nc(CCNC(=O)c1ccco1)n2C` is 3-fold higher in AC50: 1.84 µM for the first, 5.48 µM for the second.

First: CC1(S(=O)(=O)O)CC(=O)c2ccccc2C1=O (stereo not drawn)
Second: Cc1cc(C)c(/C=C2\C(=O)Nc3ccccc32)[nH]1
The AC50 of the first is 2.6-fold higher: 28.6 µM for the first, 10.8 µM for the second.

`c1ccc2nc(N3CCNCC3)ccc2c1` and `O=P(Oc1ccc(-c2ccccc2)cc1)(N1CC1)N1CC1` cannot be ordered by AC50: > 50 µM for the first, > 50 µM for the second.

Going from `CCOC1=C/C(=C/c2c(N)n3nc(S(=O)(=O)CC)sc3nc2=O)C=CC1=O` to `COc1ccc(S(=O)(=O)Cc2ccc(C(=O)N3CCN(c4cccc(C)c4)C(C)C3)o2)cc1` (stereo not drawn), the AC50 falls from 24.9 µM to 3.68 µM (6.8-fold).

`NC1(C(=O)O)CC1` and `Cc1nn(C)c(C)c1/C=C/C(=O)O` cannot be ordered by AC50: > 50 µM for the first, > 50 µM for the second.

First: Cc1cc(C(=O)NNC(=O)c2ccc(Cl)c(S(N)(=O)=O)c2)c(C)o1
Second: Cc1ccc(NC(=O)c2ccc(Cl)c(S(=O)(=O)Nc3c(C)n(C)n(-c4ccccc4)c3=O)c2)cc1Cl
The AC50 of the first is 4.4-fold lower: 6.93 µM for the first, 30.3 µM for the second.

Compared with `O=[N+]([O-])c1ccc(/C=C/C2=NN(c3ccccc3)C(c3ccco3)C2)o1` (stereo not drawn), `CC(=O)c1cccc(-c2ccnc3c2CC(C(=O)NCc2ccco2)O3)c1` (stereo not drawn) is 9-fold lower in AC50: 18.1 µM for the first, 2.01 µM for the second.

First: Cc1ccc(S(=O)(=O)N2CCOCC2)cc1NC(=O)CSc1n[nH]c(N)n1
Second: O=C(NCCCN1CCOCC1)c1sc2cc(Cl)ccc2c1Cl
The AC50 of the first is higher: > 50 µM for the first, 1.76 µM for the second.

First: Cn1cccc1/C=C1\SC(=Nc2ccccc2)NC1=O
Second: CCC1(C)OC(c2ccccc2)=C/C(=C/C=C2C(=O)NC(=O)NC2=O)O1 (stereo not drawn)
The AC50 of the first is 13-fold lower: 2.89 µM for the first, 38.7 µM for the second.

First: COc1ccc(-c2cnc3c(NC=O)cc(-c4ccccc4)cn23)cc1OC
Second: COc1ccc(-c2nc(-c3cccc(C)c3)no2)cc1OC
The AC50 of the first is 12-fold lower: 0.793 µM for the first, 9.13 µM for the second.

Compared with `O=C(O)c1ccccc1-c1c2cc(I)c(=O)c(I)c-2oc2c(I)c(O)c(I)cc12`, `COc1cc(OC)c(-c2c3cc(O)c(=O)cc-3oc3cc(O)c(O)cc23)cc1OC` is 2.1-fold lower in AC50: 16.7 µM for the first, 8.08 µM for the second.

Compared with `CC1=Nc2cc(C(=O)NCC3CCCO3)ccc2Sc2ccc(Br)cc21` (stereo not drawn), `O=S1(=O)c2ccc(Br)cc2N2CCC[C@H]2CN1Cc1ccccc1` is 5.3-fold lower in AC50: 9.45 µM for the first, 1.77 µM for the second.

First: CNc1ccc2c3c(cccc13)C(=O)N(C)C2=O
Second: O=C1c2cccc3c(N4CCCCC4)ccc(c23)C(=O)N1c1cccc(O)c1
The AC50 of the first is 3.2-fold lower: 7.59 µM for the first, 24.3 µM for the second.

First: COc1cc(C#Cc2ccc3cc(CCCO)oc(=O)c3c2)cc(OC)c1
Second: COc1cc(OC)cc(C(=O)c2c(C)c(C#N)c3ccccn23)c1
The AC50 of the first is 5.7-fold higher: 10.3 µM for the first, 1.8 µM for the second.

Compared with `C/C(=N\Nc1ncnc2sc(C)c(C)c12)c1ccccn1`, `Cc1ccc(C2(C)NC(=O)N(CC(=O)Nc3nc(-c4ccccn4)cs3)C2=O)cc1` (stereo not drawn) is 7.2-fold higher in AC50: 0.589 µM for the first, 4.23 µM for the second.

First: CCc1ccc(N2CC(C(=O)Nc3ccccc3N3CCCC3)CC2=O)cc1 (stereo not drawn)
Second: Clc1ccc2c(c1)-c1ccccc1C1=NCCN12
The AC50 of the first is 11-fold higher: 28.7 µM for the first, 2.72 µM for the second.

First: CCN[C@H]1CN(CCCOC)S(=O)(=O)c2sc(S(N)(=O)=O)cc21
Second: Cn1cc(C(=O)OCC2CCN(CCNS(C)(=O)=O)CC2)c2ccccc21
The AC50 of the first is lower: 0.0398 µM for the first, > 50 µM for the second.

Compared with `COc1ccc(NC(=O)c2nc(C)c(C3(C)CC(c4cccnc4)=NO3)s2)cc1` (stereo not drawn), `COc1ccc(Nc2nc(-c3sc(C)nc3C)cs2)cc1` is 10-fold lower in AC50: 2.75 µM for the first, 0.272 µM for the second.

Compared with `COc1ccc(OC)c(/C(C)=N\NC(=O)c2cc3cc(Cl)ccc3n2C)c1`, `COc1ccc(C(=O)c2ccc(N(C)C)cc2)c(OC)c1` is 2.2-fold lower in AC50: 8.3 µM for the first, 3.82 µM for the second.

First: COc1cc(NC(=O)N2CCNC2=O)cc(C(=O)Nc2cccc(C(F)(F)F)c2)c1
Second: CC(=O)Nc1cccc(-c2ccnc3c2CC(C)(C(=O)Nc2ccc4c(c2)OCO4)O3)c1 (stereo not drawn)
The AC50 of the first is 5.3-fold higher: 5.11 µM for the first, 0.973 µM for the second.

`CCOC(=O)N1CCN(C(=O)C2CCC(=O)N(CCCN3CCCC3=O)C2)CC1` (stereo not drawn) and `CCCCN1C(=O)/C(=C/C=C2\Oc3ccccc3N2CC)SC1=S` are within 1.5-fold of each other in AC50: 10.5 µM for the first, 9.56 µM for the second.

`COc1ccccc1C1CC(=O)Nc2cc3c(cc21)OCCO3` (stereo not drawn) and `COc1cc([C@@H]2c3cc4c(cc3[C@@H](OC)[C@H]3COC(=O)[C@H]23)OCO4)cc(OC)c1O` are within 1.5-fold of each other in AC50: 1.96 µM for the first, 2.52 µM for the second.

First: COCCNc1nc(Nc2ccc(C)cc2C)c2sccc2n1
Second: CCc1c(C)nc2ncnn2c1NCCc1ccc(OC)cc1
The AC50 of the first is 15-fold lower: 2.34 µM for the first, 34.6 µM for the second.

`CC(C)(C)c1cc(C(=O)NN)n(Cc2ccc(Cl)cc2Cl)n1` was tested, and the AC50 was > 50 µM.
